This note sets out measurements from patent US20130053381A1, “2,4-DIOXO-1,4-DIHYDRO-2H-QUINAZOLIN-3-YL-SULFONAMIDE DERIVATIVES” (NOVARTIS AG, priority 2010, published 2013).

The subject of the first test is OF1 mice. Put plainly: Maximal electroshock test (MES Test). It is filed as in vivo. Conditions: Mus musculus, po; 50 mg/kg, p.o., pre-treatment time −1 h; read-out: %-Protection. Here is the method: Compounds of the invention were tested in OF1 mice using the maximal electroshock test (MES Test) described in detail by Schmutz et al., Naunyn-Schmiedeberg's Arch Pharmacol 1990, 342, 61-66. Briefly, generalized tonic-clonic convulsions of the hind extremities were induced by passing electrical current through temporal electrodes (50 Hz, 18 mA, 0.2s). […] 30 mg/kg carbamazepine was used as a positive control; mice were classified as protected by a compound If the duration of the seizure lasted only 3 second or less. Five mice were used for each treatment condition and the percentage of protected mice was used as readout (i.e. a compound could give 0%, 20%, 40%, 60%, 80% or 100% protection). Usually, compounds of the invention or their parents were given at a dose of 50 mg/kg, p.o., 1 hour prior to induction of convulsions (i.e. “pre-treatment time −1 h”).
ED50 values (ED: effective dose) were calculated using GraphPad Prism, v4.02. after shock administration, mouse blood was collected for determination of compounds' blood exposure.
(In general: The maximal electroshock test induces tonic seizures with an electrical stimulus.)
Turning to `CCOC(=O)CCCC(=O)N(n1c(=O)[nH]c2cc(C(F)(F)F)c(-c3ccnn3C(C)C)cc2c1=O)S(C)(=O)=O` [Example 5.11, 5-{[6-(2-Isopropyl-2H-pyrazol-3-yl)-2,4-dioxo-7-trifluoromethyl-1,4-dihydro-2H-quinazolin-3-yl]-methanesulfonyl-amino}-5-oxo-pentanoic acid ethyl ester], the responders at 50 mg/kg is 40%.
For `COC(=O)N(n1c(=O)[nH]c2cc(C(F)(F)F)c([C@H]3CCCO3)cc2c1=O)S(C)(=O)=O` [Example 10.04, Methanesulfonyl-N—((R)-2,4-dioxo-6-tetrahydro-furan-2-yl-7-trifluoromethyl-1,4-dihydro-2H-quinazolin-3-yl)-carbamic acid methyl ester], the responders at 50 mg/kg was 20%.
Consider `CCn1nccc1-c1cc2c(=O)n(N(C(=O)C(C)(C)C)S(C)(=O)=O)c(=O)[nH]c2cc1C(F)(F)F` [Example 15.04, N-(2,2-Dimethyl-propionyl)-N-[6-(2-ethyl-2H-pyrazol-3-yl)-2,4-dioxo-7-trifluoromethyl-1,4-dihydro-2H-quinazolin-3-yl]-methanesulfonamide], for which the responders at 50 mg/kg was determined as 20%.
As to `CCCC(=O)N(n1c(=O)[nH]c2cc(C(F)(F)F)c(C(O)CC)cc2c1=O)S(C)(=O)=O` (centres unmarked) [Example 12.03, N-Butyryl-N-[6-(1-hydroxy-propyl)-2,4-dioxo-7-trifluoromethyl-1,4-dihydro-2H-quinazolin-3-yl]-methanesulfonamide], the responders at 50 mg/kg was 40%.
The same measure, in the same setting: as for `CC(C)CC(=O)N(n1c(=O)[nH]c2cc(C(F)(F)F)c(-n3ccnc3)cc2c1=O)S(C)(=O)=O` [Example 4.06, N-(6-Imidazol-1-yl-2,4-dioxo-7-trifluoromethyl-1,4-dihydro-2H-quinazolin-3-yl)-N-(3-methyl-butyryl)-methanesulfonamide], the figure is 20%; as for `CC(C)c1cc2[nH]c(=O)n(N(C(=O)C(C)(C)C)S(C)(=O)=O)c(=O)c2cc1-c1ccnn1C` [Example 3.23, N-(2,2-Dimethyl-propionyl)-N-[7-isopropyl-6-(2-methyl-2H-pyrazol-3-yl)-2,4-dioxo-1,4-dihydro-2H-quinazolin-3-yl]-methanesulfonamide], 20%.
`CCC(=O)N(n1c(=O)[nH]c2cc(C(F)(F)F)c(-c3ccnn3C(C)C)cc2c1=O)S(C)(=O)=O` [Example 5.02, N-[6-(2-Isopropyl-2H-pyrazol-3-yl)-2,4-dioxo-7-trifluoromethyl-1,4-dihydro-2H-quinazolin-3-yl]-N-propionyl-methanesulfonamide]: the responders at 50 mg/kg was found to be 20%.
Still for that read-out and setting: the same measure for `Cc1nccn1-c1cc2c(=O)n(NS(C)(=O)=O)c(=O)[nH]c2cc1C(F)(F)F` [Example 7.0, N-[6-(2-Methyl-imidazol-1-yl)-2,4-dioxo-7-trifluoromethyl-1,4-dihydro-2H-quinazolin-3-yl]-methanesulfonamide]: 0%; for `CCCCCC(=O)N(n1c(=O)[nH]c2cc(C(F)(F)F)c(-c3ccnn3C(C)C)cc2c1=O)S(C)(=O)=O` [Example 5.04, N-Hexanoyl-N-[6-(2-isopropyl-2H-pyrazol-3-yl)-2,4-dioxo-7-trifluoromethyl-1,4-dihydro-2H-quinazolin-3-yl]-methanesulfonamide]: 20%; for `CCCCC(=O)N(n1c(=O)[nH]c2cc(C(F)(F)F)c(C(CC)OC)cc2c1=O)S(C)(=O)=O` (centres unmarked) [Example 11.15, N-[6-(1-methoxy-propyl)-2,4-dioxo-7-trifluoromethyl-1,4-dihydro-2H-quinazolin-3-yl]-N-pentanoyl-methanesulfonamide]: 100%.
On the same count and under the same terms, the same measure for `CC(=O)n1c(=O)n(N(C(=O)OCc2ccccc2)S(C)(=O)=O)c(=O)c2cc(-c3ccnn3C)c(C(C)C)cc21` [Example 3.27, [1-Acetyl-7-isopropyl-6-(2-methyl-2H-pyrazol-3-yl)-2,4-dioxo-1,4-dihydro-2H-quinazolin-3-yl]-methanesulfonyl-carbamic acid benzyl ester]: 100%; for `CCC(=O)N(n1c(=O)[nH]c2cc(C(F)F)c(-c3ccnn3C(C)C)cc2c1=O)S(C)(=O)=O` [Example 6.05, N-[7-Difluoromethyl-6-(2-isopropyl-2H-pyrazol-3-yl)-2,4-dioxo-1,4-dihydro-2H-quinazolin-3-yl]-N-propionyl-methanesulfonamide]: 80%.
For the compound `CCCCCOC(=O)N(n1c(=O)[nH]c2cc(C(F)(F)F)c(C(CC)OC)cc2c1=O)S(C)(=O)=O` (centres unmarked) [Example 11.12, Methanesulfonyl-[6-(1-methoxy-propyl)-2,4-dioxo-7-trifluoromethyl-1,4-dihydro-2H-quinazolin-3-yl]-carbamic acid pentyl ester], the responders at 50 mg/kg stood at 20%.
Take `CCCC(=O)N(n1c(=O)[nH]c2cc(C(F)(F)F)c(-c3ccnn3C)cc2c1=O)S(C)(=O)=O` [Example 1.03, N-Butyryl-N-[6-(2-methyl-2H-pyrazol-3-yl)-2,4-dioxo-7-trifluoromethyl-1,4-dihydro-2H-quinazolin-3-yl]-methanesulfonamide]: the responders at 50 mg/kg worked out at 100%.
With `COC(=O)n1c(=O)n(N(C(C)=O)S(C)(=O)=O)c(=O)c2cc(-c3ccnn3C)c(C(C)C)cc21` [Example 3.36, 3-(Acetyl-methanesulfonyl-amino)-7-isopropyl-6-(2-methyl-2H-pyrazol-3-yl)-2,4-dioxo-3,4-dihydro-2H-quinazoline-1-carboxylic acid methyl ester], the responders at 50 mg/kg was determined as 100%.
Still for that read-out and setting: the same measure for `CCCCCC(=O)N(n1c(=O)[nH]c2cc(C(F)(F)F)c(C(CC)OC)cc2c1=O)S(C)(=O)=O` (centres unmarked) [Example 11.05, N-Hexanoyl-N-[6-(1-Methoxy-propyl)-2,4-dioxo-7-trifluoromethyl-1,4-dihydro-2H-quinazolin-3-yl]-methanesulfonamide]: 80%.
As for `CCC(=O)N(n1c(=O)[nH]c2cc(C(C)C)c(-c3ccnn3C)cc2c1=O)S(C)(=O)=O` [Example 3.12, N-[7-Isopropyl-6-(2-methyl-2H-pyrazol-3-yl)-2,4-dioxo-1,4-dihydro-2H-quinazolin-3-yl]-N-propionyl-methanesulfonamide], the responders at 50 mg/kg came to 100%.
On the same count and under the same terms, as for `CC(C)c1cc2[nH]c(=O)n(N(C(=O)CCN3CCOCC3)S(C)(=O)=O)c(=O)c2cc1-c1ccnn1C` [Example 3.38, N-[7-Isopropyl-6-(2-methyl-2H-pyrazol-3-yl)-2,4-dioxo-1,4-dihydro-2H-quinazolin-3-yl]-N-(3-morpholin-4-yl-propionyl)-methanesulfonamide], the figure is 80%; as for `CCCCCCOC(=O)N(n1c(=O)[nH]c2cc(C(F)(F)F)c(C(CC)OC)cc2c1=O)S(C)(=O)=O` (centres unmarked) [Example 11.13, Methanesulfonyl-[6-(1-methoxy-propyl)-2,4-dioxo-7-trifluoromethyl-1,4-dihydro-2H-quinazolin-3-yl]-carbamic acid hexyl ester], 60%.

The test is the same for the next values; noted with them: Mus musculus, po; Dose: 15 mg/kg, p.o. (footnote c), pre-treatment time −1 h; read-out: %-Protection.
On to `CC(=O)OC(C)(C)C(=O)N(n1c(=O)[nH]c2cc(C(C)C)c(-c3ccnn3C)cc2c1=O)S(C)(=O)=O` [Example 3.10, Acetic acid 2-{[7-isopropyl-6-(2-methyl-2H-pyrazol-3-yl)-2,4-dioxo-1,4-dihydro-2H-quinazolin-3-yl]-methanesulfonyl-amino}-1,1-dimethyl-2-oxo-ethyl ester], for which the responders at 15 mg/kg was 40%.

The test is the same for the next values; noted with them: Mus musculus, po; Dose: 25 mg/kg, p.o. (footnote b), pre-treatment time −1 h; read-out: %-Protection.
As to `CCC(=O)N(n1c(=O)[nH]c2cc(C(F)F)c(-c3ccnn3C(C)C)cc2c1=O)S(C)(=O)=O` [Example 6.05, N-[7-Difluoromethyl-6-(2-isopropyl-2H-pyrazol-3-yl)-2,4-dioxo-1,4-dihydro-2H-quinazolin-3-yl]-N-propionyl-methanesulfonamide], the responders at 25 mg/kg stood at 60%.
Consider `CCc1cc2[nH]c(=O)n(N(C(=O)OCCOC)S(C)(=O)=O)c(=O)c2cc1-c1ccnn1C` [Example 2.05, Methanesulfonyl-[7-ethyl-6-(2-methyl-2H-pyrazol-3-yl)-2,4-dioxo-1,4-dihydro-2H-quinazolin-3-yl]-carbamic acid 2-methoxy-ethyl ester], for which the responders at 25 mg/kg was determined as 80%.

The same test, now with this note: Mus musculus; dose of up to 50 mg/kg, p.o., 1 hour prior to induction of convulsions; read-out: %-Protection.
As for `COC(=O)N(n1c(=O)[nH]c2cc(C(F)F)c(-c3ccnn3C(C)C)cc2c1=O)S(C)(=O)=O` [[7-Difluoromethyl-6-(2-isopropyl-2H-pyrazol-3-yl)-2,4-dioxo-1,4-dihydro-2H-quinazolin-3-yl]-methanesulfonyl-carbamic acid methyl ester], the responders at 50 mg/kg turned out to be 0%.
In the case of `CCOC(=O)N(n1c(=O)[nH]c2cc(CC)c(-c3ccnn3CC)cc2c1=O)S(C)(=O)=O` [Methanesulfonyl-[7-ethyl-6-(2-ethyl-2H-pyrazol-3-yl)-2,4-dioxo-1,4-dihydro-2H-quinazolin-3-yl]carbamic acid ethyl ester], the responders at 50 mg/kg amounted to 0%.
For `COC(=O)N(n1c(=O)[nH]c2cc(C(F)(F)F)c(-c3ccnn3C(C)C)cc2c1=O)S(C)(=O)=O` [[6-(2-Isopropyl-2H-pyrazol-3-yl)-2,4-dioxo-7-trifluoromethyl-1,4-dihydro-2H-quinazolin-3-yl]-methanesulfonyl-carbamic acid methyl ester], the responders at 50 mg/kg was 0%.
Consider `CCn1nccc1-c1cc2c(=O)n(N(C(C)=O)S(C)(=O)=O)c(=O)[nH]c2cc1C(F)F` [N-Acetyl-N-[7-difluoromethyl-6-(2-ethyl-2H-pyrazol-3-yl)-2,4-dioxo-1,4-dihydro-2H-quinazolin-3-yl]-methanesulfonamide], for which the responders at 50 mg/kg was 0%.
